In publication PMC10447463, “Data-mining unveils structure–property–activity correlation of viral infectivity enhancing self-assembling peptides” (Nature Communications, 2023):
Where two headings read alike, the source gives them in different places.

What was measured:
[1] = test system: HIV-1 infection of TZM-bl cells; experiment: HIV-1 infectivity enhancement assay, β-galactosidase luminescence; format: cell-based; details: for Rel-EFC: infection relative to EF-C (QCKIKQIINMWQ = 1); for Log10 Infection Rel EFC: log10 of infection relative to EF-C; for Log Infectivity: Fig. S7 panel A (plotted against β-sheet content), Log10 infection relative to EF-C, asymmetric std dev errors; for Log Infectivity / Abs. Inf.: TZM-bl cells; for Log10 Infection Rel EF-C: HIV-1 infection of TZM-bl cells; for Log10 of Rel to EFC (Feb2021): Log10 of infection relative to EF-C; for Abs. Inf.: absolute HIV-1 infection signal, β-galactosidase luminescence
[2] = format: physicochemical; details: for ThT Cat. / ThT-Fluorescence (categorical): ThT-active if fluorescence at least twice the control
In short: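 Fibrils (1 mg/mL solution) were mixed with 50 µM ThT in PBS for 15 min at RT, and fluorescence was read at λex 440/λem 488 nm against a PBS blank, as a triplicate mean ± SD. Zeta potential came from electrophoretic mobility (Smoluchowski) after 1 d aggregation at 1 mg/mL in PBS pH 7.4, diluted into 1 mM KCl.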

[3] = Log10 of infection rate relative to EF-C, Figure 3A source data
[4] = infection rate relative to EF-C, log10, data of Figure 2D
[5] = infection rate relative to EF-C, log10, source data of Figure 2C
[6] = ThT fluorescence category, 1 if Rel. ThT >2

KIKIKIKI
Rel-EFC ([1]; 1.3 µM peptide): 0,03 | Log10 Infection Rel EFC ([1]; 1.3 µM peptide): -1,49 | Log Infectivity [1]: -1.487 | Log10 Infection Rel EF-C [1, 3]: -1.49 | Log10 Infection Rel EF-C [1, 4]: -1.487 | Log10 Infection Rel EF-C [1, 5]: -1.487 | Tht category (> 2 to blank = +) ([2]; Fig S10 panel D): 1 (ThT. Cat is 1, if Rel. ThT >2) | Tht category (> 2 to blank = +) ([2]; FigS12 panel A): 1 (ThT. Cat is 1, if Rel. ThT >2) | ThT Cat, ([2]; FigS12 panel B): 1 (ThT. Cat is 1, if Rel. ThT >2) | ThT Cat, ([2]; ThT category, 1 if Rel. ThT >2): 1 (ThT. Cat is 1, if Rel. ThT >2) | ThT Cat. [2, 6]: 1 (ThT. Cat is 1, if Rel. ThT >2) | ThT Cat. / ThT-Fluorescence (categorical) [2]: 1 (ThT. Cat is 1, if Rel. ThT >2)

KIKIKIKIWWWW
Rel-EFC ([1]; 1.3 µM peptide): 0,59 | Log10 Infection Rel EFC ([1]; 1.3 µM peptide): -0,23 | Log Infectivity [1]: -0.2301 | Log10 Infection Rel EF-C [1, 3]: -0.23 | Log10 Infection Rel EF-C [1, 4]: -0.2301 | Log10 Infection Rel EF-C [1, 5]: -0.2301 | Log10 of Rel to EFC (Feb2021) ([1]; all peptides of FigS16): -0.23 | Log10 of Rel to EFC (Feb2021) ([1]; second listing, peptides with TEM 2cat 0): -0.23 | Tht category (> 2 to blank = +) ([2]; Fig S10 panel D): 1 (ThT. Cat is 1, if Rel. ThT >2) | ThT Cat, ([2]; ThT category, 1 if Rel. ThT >2): 1 (ThT. Cat is 1, if Rel. ThT >2) | ThT Cat. [2, 6]: 1 (ThT. Cat is 1, if Rel. ThT >2) | ThT Cat. / ThT-Fluorescence (categorical) [2]: 1 (ThT. Cat is 1, if Rel. ThT >2)

KIKIKIQINMWQ
Rel-EFC ([1]; 1.3 µM peptide): 0,79 | Log10 Infection Rel EFC ([1]; 1.3 µM peptide): -0,1 | Log Infectivity [1]: -0.1048 | Log10 Infection Rel EF-C [1, 3]: -0.1 | Log10 Infection Rel EF-C [1, 4]: -0.1048 | Log10 Infection Rel EF-C [1, 5]: -0.1048 | Log10 of Rel to EFC (Feb2021) ([1]; all peptides of FigS16): -0.1 | Abs. Inf. [1]: 20353.33333 | Tht category (> 2 to blank = +) ([2]; Fig S10 panel D): 0 (ThT-inactive (N-Fold <2)) | ThT Cat, ([2]; ThT category, 1 if Rel. ThT >2): 0 (ThT-inactive (N-Fold <2)) | ThT Cat. ([2]; ThT category, 1 if Rel. ThT >2): 0 (ThT-inactive (N-Fold <2)) | ThT Cat. / ThT-Fluorescence (categorical) [2]: 0 (ThT-inactive (N-Fold <2))

KIKIQII
Rel-EFC ([1]; 1.3 µM peptide): 0,02 | Log10 Infection Rel EFC ([1]; 1.3 µM peptide): -1,73 | Log Infectivity [1]: -1.729 | Log10 Infection Rel EF-C [1, 3]: -1.73 | Log10 Infection Rel EF-C [1, 4]: -1.729 | Log10 Infection Rel EF-C [1, 5]: -1.729 | Tht category (> 2 to blank = +) ([2]; Fig S10 panel D): 0 (ThT-inactive (N-Fold <2)) | Tht category (> 2 to blank = +) ([2]; FigS12 panel A): 0 (ThT-inactive (N-Fold <2)) | ThT Cat, ([2]; FigS12 panel B): 0 (ThT-inactive (N-Fold <2)) | ThT Cat, ([2]; ThT category, 1 if Rel. ThT >2): 0 (ThT-inactive (N-Fold <2)) | ThT Cat. [2, 6]: 0 (ThT-inactive (N-Fold <2)) | ThT Cat. / ThT-Fluorescence (categorical) [2]: 0 (ThT-inactive (N-Fold <2))

KIKIQIMQWN
Rel-EFC ([1]; 1.3 µM peptide): 0,72 | Log10 Infection Rel EFC ([1]; 1.3 µM peptide): -0,15 | Log Infectivity [1]: -0.1454 | Log10 Infection Rel EF-C [1, 3]: -0.15 | Log10 Infection Rel EF-C [1, 4]: -0.1454 | Log10 Infection Rel EF-C [1, 5]: -0.1454 | Log10 of Rel to EFC (Feb2021) ([1]; all peptides of FigS16): -0.15 | Abs. Inf. [1]: 11623.33333 | Tht category (> 2 to blank = +) ([2]; Fig S10 panel D): 0 (ThT-inactive (N-Fold <2)) | ThT Cat, ([2]; ThT category, 1 if Rel. ThT >2): 0 (ThT-inactive (N-Fold <2)) | ThT Cat. ([2]; ThT category, 1 if Rel. ThT >2): 0 (ThT-inactive (N-Fold <2)) | ThT Cat. / ThT-Fluorescence (categorical) [2]: 0 (ThT-inactive (N-Fold <2))

KIKIQIMWNQ
Rel-EFC ([1]; 1.3 µM peptide): 0,56 | Log10 Infection Rel EFC ([1]; 1.3 µM peptide): -0,25 | Log Infectivity [1]: -0.2495 | Log10 Infection Rel EF-C [1, 3]: -0.25 | Log10 Infection Rel EF-C [1, 4]: -0.2495 | Log10 Infection Rel EF-C [1, 5]: -0.2495 | Log10 of Rel to EFC (Feb2021) ([1]; all peptides of FigS16): -0.25 | Abs. Inf. [1]: 9147 | Tht category (> 2 to blank = +) ([2]; Fig S10 panel D): 0 (ThT-inactive (N-Fold <2)) | ThT Cat, ([2]; ThT category, 1 if Rel. ThT >2): 0 (ThT-inactive (N-Fold <2)) | ThT Cat. ([2]; ThT category, 1 if Rel. ThT >2): 0 (ThT-inactive (N-Fold <2)) | ThT Cat. / ThT-Fluorescence (categorical) [2]: 0 (ThT-inactive (N-Fold <2))

KIKIQINMWQRGD
Rel-EFC ([1]; 1.3 µM peptide): 0,01 | Log10 Infection Rel EFC ([1]; 1.3 µM peptide): -1,92 | Log Infectivity [1]: -1.917 | Log10 Infection Rel EF-C [1, 3]: -1.92 | Log10 Infection Rel EF-C [1, 4]: -1.917 | Log10 Infection Rel EF-C [1, 5]: -1.917 | Inf. rel. EF-C ([1]; HIV-1 infection relative to EF-C, Fig 23 plot, panels A and B, mean of 3 values): 0.008366 | Inf. rel. EF-C ([1]; HIV-1 infection relative to EF-C, Fig 23 plot, single data point, replicate 1): 0.00461 | Inf. rel. EF-C ([1]; HIV-1 infection relative to EF-C, Fig 23 plot, single data point, replicate 2): 0.009457 | Inf. rel. EF-C ([1]; HIV-1 infection relative to EF-C, Fig 23 plot, single data point, replicate 3): 0.01103 | Abs. Inf. [1]: 196.7 | Abs. Inf. / RLU s-1 ([1]; absolute infection rate, peptide 1.3 µM on cells, virus preincubated 10 min with fibrils, read 3 days post infection, mean of triplicate): 197 RLU s-1 | Inf. rel. EF-C ([1]; n-fold infection vs virus only, relative to that of EF-C, 1.3 µM peptide): 0.01 | Tht category (> 2 to blank = +) ([2]; Fig S10 panel D): 0 (ThT-inactive (N-Fold <2)) | Tht category (> 2 to blank = +) ([2]; FigS12 panel A): 0 (ThT-inactive (N-Fold <2)) | ThT Cat, ([2]; FigS12 panel B): 0 (ThT-inactive (N-Fold <2)) | ThT Cat, ([2]; ThT category, 1 if Rel. ThT >2): 0 (ThT-inactive (N-Fold <2)) | ThT Cat. ([2]; ThT category, 1 if Rel. ThT >2): 0 (ThT-inactive (N-Fold <2)) | ThT Cat. / ThT-Fluorescence (categorical) [2]: 0 (ThT-inactive (N-Fold <2)) | Rel. ThT ([2]; n-fold ThT fluorescence vs control (PBS, 10% DMSO), 4 µL 1 mg/mL fibrils + 20 µL 50 µM ThT, 15 min RT, ex 440 / em 488 nm, triplicate): 1.5
